Measured values: patent US9315522B2, “Antibacterial compounds” (JANSSEN SCIENCES IRELAND UC, priority 2012, dated 2016)
Converted amounts (≈) assume the structure as drawn. “And” between values parts separate entries of the source, which are not always exact repeats. Identical values can stand only once.

How the values were obtained:
[1] = test system: Staphylococcus aureus ATCC 29213; experiment: Antibacterial susceptibility testing, IC90 determination (STA); format: cell-based; conditions: Staphylococcus aureus, ATCC29213, Staphylococcus aureus ATCC 29213, broth microdilution, resazurin; read-out: STA (361.159) IC90
Method: (§1) The following bacteria were used: Staphylococcus aureus ATCC 29213, methicillin-resistant Staphylococcus aureus (MRSA) ATCC 700788 and Escherichia coli ATCC 35218. The bacteria used in this study were grown overnight in flasks containing 100 ml Mueller-Hinton broth (Difco cat. nr. 0757-17) in sterile de-ionized water, with shaking, at 37° C. Stocks were store at −70° C. until use.
(§2) Bacteria were incubated on a tryptic soy agar plate containing 5% sheep blood (Becton Dickinson cat. nr. 254053) for 18-24 hours at 35° C. in aerobic conditions (first passage). For the second passage, fresh Mueller-Hinton broth is inoculated with 5-10 colonies and grown overnight at 35° C. until turbidity (reaching log-phase) in aerobic conditions is reached. The bacterial suspension is then adjusted to 0.5 McFarland density and further diluted 1:100 in Mueller Hinton broth medium. This is used as inoculum.
The result(s) are depicted the table below (for STA ATCC 29213).
(§3) MIC assays were performed by the broth microdilution method in a 96-well format (flat-bottom microtitre plates) with a final volume of 0.1 ml Mueller Hinton broth containing two-fold serial dilutions of compounds and inoculated with 5×10^5 CFU/ml of bacteria (standard inoculum size according to CLSI guidelines). Inhibitors are typically varied over the range of 63 to 0.49 μM. The final DMSO concentration in the assay was 1.25% (maximum tolerable DMSO concentration=6%). In the assays where the effect of human serum on the activity of the compounds against S. aureus was tested, human serum was added at a final concentration of 10%. The plates were incubated at 35° C. for 16-20 hours. At the end of incubation the bacterial growth was quantified fluorometrically. For this, resazurin was added to all wells and the plates were re-incubated. The incubation time is dependent on the type of bacteria. A change in color from blue to pink indicated the growth of bacteria. The fluorescence was read in computer-controlled fluorometer (Fluoroskan Ascent FL, Labsystems) at an excitation wavelength 540 nm and an emission wavelength of 590 nm. The % growth inhibition achieved by the compounds was calculated according to standard methods. The IC90 (expressed in μg/ml) was defined as the 90% inhibitory concentration for bacterial growth. A panel of reference compounds were simultaneously tested for QC approval.

S. aureus = experiment: Antibacterial susceptibility testing, IC90 determination with 10% human serum (STA + 10% HS); format: cell-based, Staphylococcus aureus; conditions: Staphylococcus aureus, human serum at final concentration of 10%, read-out: STA + 10% HS (361.169) IC90
Method: as §1, §2, §3
The results are depicted in the table(s) below (STA+10% HS).

[2] = biological target: T1, S. aureus ATCC 29213 FabI (Staphylococcus aureus, UniProt Q6GI75); experiment: Staphylococcus aureus FabI enzyme inhibition assay; format: biochemical; conditions: read-out: FabI (300.235) IC50 (converted)
T1 sequence (Q6GI75 1-256): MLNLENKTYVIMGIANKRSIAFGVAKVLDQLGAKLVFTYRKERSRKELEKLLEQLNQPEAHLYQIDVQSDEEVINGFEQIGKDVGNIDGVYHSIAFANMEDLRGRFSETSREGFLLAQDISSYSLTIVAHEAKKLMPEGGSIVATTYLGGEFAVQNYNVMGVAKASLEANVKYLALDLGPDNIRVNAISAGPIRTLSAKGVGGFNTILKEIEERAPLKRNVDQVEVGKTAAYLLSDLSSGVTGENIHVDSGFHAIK
Method: Y.1 FabI Enzyme Inhibition: Staphylococcus aureus FabI Enzyme Inhibition Assay
FabI enzyme inhibition assays were carried out in half-area, 384-well microtitre plates. Compounds were evaluated in 40-μl assay mixtures containing 100 mM NaADA, pH 6.5 (ADA=N-[2-acetamido]-2iminodiacetic acid), 250 μM crotonoyl-CoA, 625 μM NADH and 50 μg/ml S. aureus ATCC 29213 FabI. Inhibitors were typically varied over the range of 50 to 0.39 μM. The reaction mixtures were incubated for 30 minutes at room temperature and the reaction was stopped by adding 200 mM Tris buffer (pH 9.0) to create a pH-shift. The consumption of NADH was monitored by measuring the change in absorbance at […]. By comparing sample readings to those of negative (absence of compound) and positive (absence of enzyme) controls, the percent inhibition of enzymatic activity of the compounds was determined A best-fit curve is fitted by a minimum of squares method. From this an IC50-value (expressed in μg/ml), resulting in 50% inhibition of enzymatic activity, was obtained.

[3] = Cytotoxicity MTT assay (HELAM); format: cell-based, Human; conditions: human, HelaM cells, read-out: HELAM (222.125) CC50
Method: Cytotoxicity of the compounds was evaluated using the MTT assay. Human HelaM cells grown in 96-well plates were exposed to serial dilutions of the tested compounds (final volume of 0.2 ml) and incubated for 72 hours at 37° C. and 5% CO2. Inhibitors are typically varied over the range of 25 to 0.8 μM. The final DMSO concentration in the assay is 0.5%. MTT (3-(4,5-Dimethylthiazol-2-yl)-2,5-diphenyltetrazolium bromide, a tetrazole) was added and reduced to purple formazan only in living cells. Solubilization of the formazan crystals was achieved by adding 100 μl 2-propanol. Cell viability was determined by measuring the absorbance of the reduced formazan, giving a purple color, at 540 nm and 690 nm. The absorbance measured at 690 nm was automatically subtracted from the absorbance at 540 nm, to eliminate the effects of non-specific absorption. The percent cytotoxicity achieved by the compounds was calculated according to standard methods. Cytotoxicity is reported as CC50, the concentration that causes a 50% reduction in cell viability.
The results are depicted in the table(s) below (HELAM).

| SMILES | IC90 [1] [µg/mL] | IC90 (S. aureus) [µg/mL] | IC50 [2] [nM] | melting point | CC50 at 72 h [3] [µg/mL] |
| --- | --- | --- | --- | --- | --- |
| O=C1COCc2cc(/C=C/C(=O)N3CC4C=C(c5ccccc5)CC4C3)cnc2N1 (centres unmarked) [compound 39] | < 0.19 | 0.35 | ~1620 | 266.57 °C and 266.6 °C | > 10.1 |
| COc1cncc(C(=O)Nc2ccc(/C=C/C(=O)N3CC4C=C(c5nccs5)CC4C3)cn2)c1 (centres unmarked) [compound 32] | < 0.23 | < 0.23 | 718 | 207 °C | > 11.9 |
| O=C1COCc2cc(/C=C/C(=O)N3CC4C=C(c5ccsc5)CC4C3)cnc2N1 (centres unmarked) [compound 41] | < 0.2 | 0.23 | 1030 | 152 °C | > 10.2 |
| COc1cncc(C(=O)Nc2ccc(/C=C/C(=O)N3CC4C=C(c5ccnn5C)CC4C3)cn2)c1 (centres unmarked) [compound 31] | 0.72 (≈ 1.53 µM) | 0.86 | 659 | 89.36 °C | > 11.8 |
| O=C(Cc1ccncc1)Nc1ccc(/C=C/C(=O)N2CC3C=C(c4ccccc4)CC3C2)cn1 (centres unmarked) [compound 14] | 0.86 (≈ 1.91 µM) | 2.65 | 1730 | 239.7 °C | > 11.3 |
| Nc1ccc(/C=C/C(=O)N2CC3C=C(c4ccccc4)CC3C2)cn1 (centres unmarked) [compound 15] | 1.23 (≈ 3.71 µM) | 2.43 | 2350 | 236 °C | > 8.32 |
| O=C(Nc1ccc(/C=C/C(=O)N2CC3C=C(c4ccccc4)CC3C2)cn1)c1ccncc1 (centres unmarked) [compound 12] | 0.5 (≈ 1.15 µM) | 1.58 | 2040 | 184 °C | > 11 |
| O=C(Nc1ccc(/C=C/C(=O)N2CC3C=C(c4ccccc4)CC3C2)cn1)c1cccnc1 (centres unmarked) [Cpd. No. 3] | 0.21 (≈ 0.481 µM) | 0.79 | 1810 | 238 °C | 1.23 (≈ 2.82 µM) |

Second part, led by results:

| IC90 [1] [µg/mL] | IC90 (S. aureus) [µg/mL] | IC50 [2] [nM] | melting point | SMILES | CC50 at 72 h [3] [µg/mL] |
| --- | --- | --- | --- | --- | --- |
| 1.67 (≈ 3.63 µM) | 1.62 | 955 | 226 °C | Cn1nccc1C1=CC2CN(C(=O)/C=C/c3cnc4c(c3)CN3CCOCC3C(=O)N4)CC2C1 (centres unmarked) [compound 85] | > 11.6 |
| < 0.21 | < 0.21 | 859 | 113.11 °C | CC(C)C1Oc2cc(/C=C/C(=O)N3CC4C=C(c5ccncc5)CC4C3)cnc2NC1=O (centres unmarked) [compound 65] | > 10.8 |
| 3.39 (≈ 7.57 µM) | 3.17 | 2230 | 114 °C | COc1ccccc1N1C[C@H]2CN(C(=O)/C=C/c3cnc4c(c3)CN(C)CC(=O)N4)C[C@H]2C1 [compound 59] | > 11.2 |
| 0.26 (≈ 0.55 µM) | 0.59 | 1180 | 214 °C | O=C1Nc2ncc(/C=C/C(=O)N3CC4C=C(c5ccccc5)CC4C3)cc2CN2CCSCC12 (centres unmarked) [compound 77] | 1.2 (≈ 2.54 µM) |
| < 0.25 | < 0.25 | 1290 | 215 to 230 °C | CC(=O)N1CCN2Cc3cc(/C=C/C(=O)N4CC5C=C(c6cccs6)CC5C4)cnc3NC(=O)C2C1 (centres unmarked) [compound 75] | > 12.7 |
| 1.54 (≈ 3.81 µM) | 1.52 | 939 | 228 °C | Cn1nccc1C1=CC2CN(C(=O)/C=C/c3cnc4c(c3)CNCC(=O)N4)CC2C1 (centres unmarked) [compound 57] | > 10.2 |
| 0.35 (≈ 0.844 µM) | 0.4 | 965 | 202 °C | CN1CC(=O)Nc2ncc(/C=C/C(=O)N3CC4C=C(c5ccccc5)CC4C3)cc2C1 (centres unmarked) [compound 50] | > 20.8 |
| 0.25 (≈ 0.612 µM) | 0.24 | ~930 | 260.34 °C | O=C1COCc2cc(/C=C/C(=O)N3CC4C=C(c5nccs5)CC4C3)cnc2N1 (centres unmarked) [compound 49] | > 10.3 |
